The text below walks through data of patent US9783524B2, “Protein tyrosine kinase modulators and methods of use” (BETTA PHARMACEUTICALS CO., LTD., priority 2013, dated 2017).

Among the test systems are EGFR (L858R) (h); EGFR (T790M, L858R) (h); EGFR (T790M) (h); EGFR (h); ALK (h).
Common to all, as to assay type: biochemical, human
Conditions in all cases: 0.1 μM test compound, 10 μM ATP; remaining activity relative to DMSO control = 100%

Consider `C=C(CN1CCCCC1)C(=O)Nc1ccc(OC)c(Nc2ncc(Cl)c(Nc3ccccc3C(=O)C(=O)N(C)C)n2)c1` [Example 73, N-(3-(5-chloro-4-(2-(2-(dimethylamino)-2-oxoacetyl)phenylamino)pyrimidin-2-ylamino)-4-methoxyphenyl)-2-(piperidin-1-ylmethyl)acrylamide], for which the “Activity (control) % EGFR (L858R) (h)” value in the assay on EGFR (L858R) (h) was 37%. For the same compound, the “Activity (control) % EGFR (T790M, L858R) (h)” value in the assay with EGFR (T790M, L858R) (h) was determined as 3%. Moreover, in the assay with EGFR (T790M) (h), the “Activity (control) % EGFR (T790M) (h)” value was found to be 3%. Also, in the assay on EGFR (h), the “Activity (control) % EGFR (h)” value came to 67%. In the assay with ALK (h), the “Activity (control) % ALK (h)” value turned out to be 17%.
In the case of `C=C(CN(C)C)C(=O)Nc1ccc(OC)c(Nc2ncc(Cl)c(Nc3ccccc3C(=O)C(=O)N(C)C)n2)c1` [Example 78, N-(3-(5-chloro-4-(2-(2-(dimethylamino)-2-oxoacetyl)phenylamino)pyrimidin-2-ylamino)-4-methoxyphenyl)-2-((dimethylamino)methyl)acrylamide], the “Activity (control) % EGFR (L858R) (h)” value in the assay with EGFR (L858R) (h) was found to be 37%. Further, the “Activity (control) % EGFR (T790M, L858R) (h)” value with EGFR (T790M, L858R) (h) amounted to 3%. The “Activity (control) % EGFR (T790M) (h)” value with EGFR (T790M) (h) came out at 2%. Moreover, the “Activity (control) % EGFR (h)” value with EGFR (h) worked out at 68%. For the same compound, in the assay with ALK (h), the “Activity (control) % ALK (h)” value stood at 36%.
For `COc1ccc(NC(=O)/C=C/CN2CCOCC2)cc1Nc1ncc(Cl)c(Nc2ccccc2C(=O)C(=O)N(C)C)n1` [Example 79, (E)-N-(3-(5-chloro-4-(2-(2-(dimethylamino)-2-oxoacetyl)phenylamino)pyrimidin-2-ylamino)-4-methoxyphenyl)-4-morpholinobut-2-enamide] the same measures were 25%, 2%, 16%, 92% and 7%.
For `C=CC(=O)Nc1ccc(OC)c(Nc2ncc(Cl)c(Nc3ccccc3C(=O)C(=O)N3CCN(C)CC3)n2)c1` [Example 89, N-(3-(5-chloro-4-(2-(2-(4-methylpiperazin-1-yl)-2-oxoacetyl)phenylamino)pyrimidin-2-ylamino)-4-methoxyphenyl)acrylamide], the “Activity (control) % EGFR (L858R) (h)” value in the assay with EGFR (L858R) (h) came out at 10%. Besides, in the assay on EGFR (T790M, L858R) (h), the “Activity (control) % EGFR (T790M, L858R) (h)” value was 1%. Further, the “Activity (control) % EGFR (T790M) (h)” value in the assay with EGFR (T790M) (h) was determined as 5%. Besides, the “Activity (control) % EGFR (h)” value in the assay with EGFR (h) was found to be 67%. Besides, in the assay with ALK (h), the “Activity (control) % ALK (h)” value came to 8%.
With `COc1cc(Nc2ncc(Cl)c(Nc3ccccc3C(=O)C(=O)N(C)C)n2)ccc1N1CCN(C(C)=O)CC1` [Example 94, 2-(2-(2-(4-(4-acetylpiperazin-1-yl)-3-methoxyphenylamino)-5-chloropyrimidin-4-ylamino)phenyl)-N,N-dimethyl-2-oxoacetamide], the “Activity (control) % EGFR (L858R) (h)” value with EGFR (L858R) (h) turned out to be 84%. Further, the “Activity (control) % EGFR (T790M, L858R) (h)” value with EGFR (T790M, L858R) (h) was 9%. Moreover, the “Activity (control) % EGFR (T790M) (h)” value in the assay on EGFR (T790M) (h) is given as 45%. Also, the “Activity (control) % EGFR (h)” value in the assay on EGFR (h) stood at 100%. Besides, in the assay on ALK (h), the “Activity (control) % ALK (h)” value amounted to 6%.
In the same order, the values of `C=C(CN1CCCC1)C(=O)Nc1ccc(OC)c(Nc2ncc(Cl)c(Nc3ccccc3C(=O)C(=O)N(C)C)n2)c1` [Example 97, N-(3-(5-chloro-4-(2-(2-(dimethylamino)-2-oxoacetyl)phenylamino)pyrimidin-2-ylamino)-4-methoxyphenyl)-2-(pyrrolidin-1-ylmethyl)acrylamide] are 46%, 6%, 2%, 74% and 23%.
For `C=CC(=O)Nc1cc(Nc2ncc(C)c(Nc3ccccc3C(=O)C(=O)N(C)C)n2)ccc1OC` [Example 101, N-(5-(4-(2-(2-(dimethylamino)-2-oxoacetyl)phenylamino)-5-methylpyrimidin-2-ylamino)-2-methoxyphenyl)acrylamide] the same measures were 94%, 41%, 83%, 110% and 35%.
